Results published in patent US20230135029A1, “COMPOSITIONS AND METHODS FOR INCREASING DIGESTIBILITY OF CALCIUM AND PHOSPHOROUS IN PIGS” (Premex, Inc., priority 2020, published 2023).
“Also recorded” adds a separate entry of the source.

Tested on: late gestating sows
Assay: Calcium, phosphorus and energy balance / apparent total tract digestibility (ATTD) study in late gestating sows fed diets with supplemental 1-α-OH-D3
Format: in vivo, pig
Conditions: for ATTD of Ca / ATTD of Dry Matter / ATTD of P / ATTD of gross energy / Absorbed Ca / Absorbed P / Fecal Ca output / Fecal P output / Fecal excretion / Urine Ca output / Urine P output: 12.5 mg/kg diet; for fecal P output, in words / urine P output, in words: vs no supplement
From the text: Thirty six gestating sows were allotted to three blocks of twelve sows using a randomized complete block design. Four diets were fed to the twelve sows in each block. Thus, there were a total of nine replicate sows per diet. Sows were fed experimental diets from day 91 to 105 of gestation and were housed individually in metabolism crates during this period. Metabolism crates were equipped with a feeder, a nipple drinker, and fully slatted T-bar floors. A screen floor and a urine pan were installed below the T-bar floors to allow for collection of feces and urine, respectively. The initial five days of each period in the metabolism crates were considered the adaptation period to the diets followed by four days of fecal collection using the marker to marker procedure (Adeola, O. 2001. Digestion and balance techniques in pigs. In: A. J. Lewis and L. L. Southern, editors, Swine Nutrition. CRC Press, Washington, D.C., USA. p. 903-916.). Fecal collection was initiated when the first marker (i.e., indigo carmine) appeared in the feces and ceased when the second marker (i.e., chromic oxide) appeared (Id.). Urine was collected in buckets placed under the urine pans with 50 mL of 3N HCl from day six in the morning until day ten in the morning. Buckets were emptied daily, the weight of the collected urine was recorded, and 10% of the collected urine was stored at −20° C. until subsampling.
Diets were formulated using a 2×2 factorial arrangement with two levels of calcium and phosphorus (i.e., 100% and 75% of the requirement; NRC, 2012) with a constant calcium to phosphorus ratio (See Table 1) without or with supplemental 1-α-OH-D3 (Alpha D3, Premex Inc., NC). The high level of calcium and phosphorus was 100% requirement for late gestation sows. The low level of calcium phosphorus was 75% of requirement for late gestation sows (NRC. 2012. Nutrient requirements of swine. 11th rev. ed. Natl. Acad. Press, Washington, D.C., USA). The corn-1-α-OH-D3 premix provided 12.5 mg Alpha D3 per kg of complete diet; 1,000 g of 1-α-OH-D3 premix was prepared by mixing 417 mg Alpha D3 and 999.583 g ground corn.
The vitamin-micromineral premix provided the following quantities of vitamins and micro minerals per kilogram of complete diet: vitamin A as retinyl acetate, 10,622 IU; vitamin D3 as cholecalciferol, 1,660 IU; vitamin E as […], 66 IU; vitamin K as menadione nicotinamide bisulfate, 1.40 mg; thiamin as thiamine mononitrate, 1.08 mg; riboflavin, 6.49 mg; pyridoxine as pyridoxine hydrochloride, 0.98 mg; vitamin B12, 0.03 mg; D-pantothenic acid as D-calcium pantothenate, 23.2 mg; niacin, 43.4 mg; folic acid, 1.56 mg; biotin, 0.44 mg; Cu, 20 mg as copper chloride; Fe, 123 mg as iron sulfate; I, 1.24 mg as ethylenediamine dihydriodide; Mn, 59.4 mg as manganese hydroxychloride; Se, 0.27 mg as sodium selenite and selenium yeast; and Zn, 124.7 mg as zinc hydroxychloride.
All vitamins and minerals except calcium and phosphorus were included in all diets to meet or exceed nutrient requirements (NRC, 2012). Daily feed allotments were provided in a meal that was fed at 7 AM throughout the experiment. The daily feed allowance was 1.5 times the maintenance energy requirement for gestating sows based on the initial body weight of sows (i.e., 100 kcal ME/kg BW0.75; NRC. 2012. Nutrient requirements of swine. 11th rev. ed. Natl. Acad. Press, Washington, D.C., USA). Water was available at all times.
At the conclusion of the testing, urine samples were thawed and mixed within animal and collection period and subsamples were collected. Fecal samples were stored at −20° C. as soon as collected, and at the conclusion of the experiment, samples were dried at 65° C. in a forced air oven and finely ground through a 1-mm screen before analysis using a Wiley mill (Model 4; Thomas Scientific, Swedesboro, N.J.). […]

[1] = high level of dietary calcium and phosphorus, P<0.05
[2] = low level of dietary calcium and phosphorus
[3] = supplemented vs no supplemental 1-α-OH-D3, main effect, P<0.01
[4] = supplemented vs no supplemental 1-α-OH-D3, regardless of dietary Ca and P levels, P<0.05

C=C1/C(=C\C=C2/CCC[C@]3(C)[C@@H]([C@H](C)CCCC(C)C)CC[C@@H]23)C[C@@H](O)C[C@@H]1O [1-α-OH-D3, 1-alpha-hydroxycholecalciferol]
ATTD of Ca (High Ca and P levels): 30.25%
ATTD of Dry Matter (High Ca and P levels): 87.72%
ATTD of P (High Ca and P levels): 34.7%
ATTD of gross energy (High Ca and P levels): 87.3%
Absorbed Ca (High Ca and P levels): 6.63 grams/day
Absorbed P (High Ca and P levels): 5.19 grams/day
Fecal Ca output (High Ca and P levels): 15.00 grams/day
Fecal P output (High Ca and P levels): 9.71 grams/day
Fecal excretion (High Ca and P levels): 0.32 kg dry matter/d
Urine Ca output (High Ca and P levels): 0.59 grams/day
Urine P output (High Ca and P levels): 0.99 grams/day
ATTD of Ca (Low Ca and P levels): 30.49%
ATTD of Dry Matter (Low Ca and P levels): 88.31%
ATTD of P (Low Ca and P levels): 29.63%
ATTD of gross energy (Low Ca and P levels): 87.5%
Absorbed Ca (Low Ca and P levels): 4.66 grams/day
Absorbed P (Low Ca and P levels): 3.16 grams/day
Fecal Ca output (Low Ca and P levels): 10.89 grams/day
Fecal P output (Low Ca and P levels): 7.67 grams/day
Fecal excretion (Low Ca and P levels): 0.30 kg dry matter/d
Urine Ca output (Low Ca and P levels): 0.99 grams/day
Urine P output (Low Ca and P levels): 0.12 grams/day
fecal P output, in words [1]: decreased
urine P output, in words [1]: decreased
fecal P output, in words [2]: no difference
urine P output, in words [2]: no difference
ATTD of dry matter, in words (supplemented vs no supplemental 1-α-OH-D3, main effect): greater
fecal excretion, in words (supplemented vs no supplemental 1-α-OH-D3, main effect over both Ca and P levels, P<0.05): less
ATTD of calcium, in words [3]: greater; also recorded: increased
ATTD of gross energy, in words [3]: increases
Fecal calcium output, in words [3]: less
absorbed calcium, in words [3]: greater
calcium retention, in words [3]: greater; also recorded: increased
concentration of digestible energy in diets, in words [3]: increases
urine calcium outputs, in words [3]: increased
ATTD of phosphorus, in words [4]: greater; also recorded: increased
absorbed phosphorus, in words [4]: greater
phosphorus retention, in words [4]: greater; also recorded: increased
